PubChem BioAssay (NCI)
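Cells were grown in 96-well plates and exposed to each compound for 48 hours at five concentrations; endpoints were interpolated linearly between bracketing concentrations, or set to the highest concentration if not reached. TGI is the concentration that stops growth completely.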

Each molecule was assayed on DU-145 prostate (assay: inhibition of tumour cell growth, NCI panel, 48 h).
Cc1c(O)c(=O)ccn1CCc1ccc(O)cc1 gave a TGI greater than 100 µM.

What follows are molecules tested on MDA-MB-231 breast (assay: inhibition of tumour cell growth, NCI panel, 48 h).
Nc1cc2c3c(cccc3c1)C(=O)N(c1ccc(OCCN3CCCC3)cc1)C2=O gave a TGI of 57.1 µM.
Work on Cc1cc2ccc(N)nc2[nH]c1=O yielded a TGI greater than 100 µM.
For O=C(N/N=C\c1ccc([N+](=O)[O-])s1)c1ccncc1, the TGI was greater than 89.1 µM.
C=C1C(=O)OC2C3OC(C)(CCC(O)C3COC(C)=O)CC(OC(=O)/C(=C/C)COC(C)=O)C12 (stereo unspecified) was tested, and the TGI was 1.16 µM.
For COc1ccccc1NC(=S)N/N=C/c1cccc(C)n1, the TGI was greater than 100 µM.
Molecule CCOC(=O)/C=C/[C@@H](CC)O[Si](C(C)C)(C(C)C)C(C)C has a TGI greater than 100 µM.
For Cc1c(O)c(=O)ccn1CCc1ccc(O)cc1, the TGI was 50.3 µM.

These molecules were tested on NCI/ADR-RES ovarian (assay: inhibition of tumour cell growth, NCI panel, 48 h).
With Nc1cc2c3c(cccc3c1)C(=O)N(c1ccc(OCCN3CCCC3)cc1)C2=O the TGI was greater than 57 µM.
Cc1cc2ccc(N)nc2[nH]c1=O was tested, and the TGI was greater than 100 µM.
O=C(N/N=C\c1ccc([N+](=O)[O-])s1)c1ccncc1 was tested, and the TGI was greater than 91.1 µM.
For C=C1C(=O)OC2C3OC(C)(CCC(O)C3COC(C)=O)CC(OC(=O)/C(=C/C)COC(C)=O)C12 (stereo unspecified), the TGI was 11 µM.
Molecule COc1ccccc1NC(=S)N/N=C/c1cccc(C)n1 has a TGI greater than 31.1 µM.
CCOC(=O)/C=C/[C@@H](CC)O[Si](C(C)C)(C(C)C)C(C)C showed a TGI greater than 100 µM.
Cc1c(O)c(=O)ccn1CCc1ccc(O)cc1 gave a TGI of 59.5 µM.

These molecules were tested on KM12 colon (assay: inhibition of tumour cell growth, NCI panel, 48 h).
For Nc1cc2c3c(cccc3c1)C(=O)N(c1ccc(OCCN3CCCC3)cc1)C2=O, the TGI was 31.1 µM.
With Cc1cc2ccc(N)nc2[nH]c1=O the TGI was greater than 100 µM.
O=C(N/N=C\c1ccc([N+](=O)[O-])s1)c1ccncc1 was tested, and the TGI was 26.8 µM.
Molecule C=C1C(=O)OC2C3OC(C)(CCC(O)C3COC(C)=O)CC(OC(=O)/C(=C/C)COC(C)=O)C12 (stereo unspecified) has a TGI of 3.45 µM.
Work on COc1ccccc1NC(=S)N/N=C/c1cccc(C)n1 yielded a TGI greater than 100 µM.
In the case of CCOC(=O)/C=C/[C@@H](CC)O[Si](C(C)C)(C(C)C)C(C)C, the TGI is reported as greater than 100 µM.
Cc1c(O)c(=O)ccn1CCc1ccc(O)cc1 gave a TGI greater than 100 µM.

Each molecule was assayed on SK-MEL-5 melanoma (assay: inhibition of tumour cell growth, NCI panel, 48 h).
With Nc1cc2c3c(cccc3c1)C(=O)N(c1ccc(OCCN3CCCC3)cc1)C2=O the TGI was 36.9 µM.
Molecule Cc1cc2ccc(N)nc2[nH]c1=O has a TGI greater than 100 µM.
With O=C(N/N=C\c1ccc([N+](=O)[O-])s1)c1ccncc1 the TGI was 12.8 µM.
C=C1C(=O)OC2C3OC(C)(CCC(O)C3COC(C)=O)CC(OC(=O)/C(=C/C)COC(C)=O)C12 (stereo unspecified) gave a TGI of 2.65 µM.
COc1ccccc1NC(=S)N/N=C/c1cccc(C)n1 showed a TGI of 47.3 µM.
CCOC(=O)/C=C/[C@@H](CC)O[Si](C(C)C)(C(C)C)C(C)C showed a TGI greater than 100 µM.
Work on Cc1c(O)c(=O)ccn1CCc1ccc(O)cc1 yielded a TGI of 51.7 µM.

The molecules below were run on A549 NSCLC (assay: inhibition of tumour cell growth, NCI panel, 48 h).
For Nc1cc2c3c(cccc3c1)C(=O)N(c1ccc(OCCN3CCCC3)cc1)C2=O, the TGI was 50.8 µM.
With Cc1cc2ccc(N)nc2[nH]c1=O the TGI was greater than 100 µM.
In the case of O=C(N/N=C\c1ccc([N+](=O)[O-])s1)c1ccncc1, the TGI is reported as greater than 66.3 µM.
With C=C1C(=O)OC2C3OC(C)(CCC(O)C3COC(C)=O)CC(OC(=O)/C(=C/C)COC(C)=O)C12 (stereo unspecified) the TGI was 22.1 µM.
COc1ccccc1NC(=S)N/N=C/c1cccc(C)n1 gave a TGI of 86.9 µM.
Work on CCOC(=O)/C=C/[C@@H](CC)O[Si](C(C)C)(C(C)C)C(C)C yielded a TGI greater than 100 µM.
For Cc1c(O)c(=O)ccn1CCc1ccc(O)cc1, the TGI was greater than 100 µM.

Each molecule was assayed on SK-MEL-2 melanoma (assay: inhibition of tumour cell growth, NCI panel, 48 h).
Nc1cc2c3c(cccc3c1)C(=O)N(c1ccc(OCCN3CCCC3)cc1)C2=O was tested, and the TGI was 38 µM.
With Cc1cc2ccc(N)nc2[nH]c1=O the TGI was greater than 100 µM.
O=C(N/N=C\c1ccc([N+](=O)[O-])s1)c1ccncc1 showed a TGI of 68.5 µM.
C=C1C(=O)OC2C3OC(C)(CCC(O)C3COC(C)=O)CC(OC(=O)/C(=C/C)COC(C)=O)C12 (stereo unspecified) showed a TGI of 6.96 µM.
For COc1ccccc1NC(=S)N/N=C/c1cccc(C)n1, the TGI was greater than 100 µM.
For CCOC(=O)/C=C/[C@@H](CC)O[Si](C(C)C)(C(C)C)C(C)C, the TGI was greater than 100 µM.

What follows are molecules tested on UO-31 renal (assay: inhibition of tumour cell growth, NCI panel, 48 h).
With Nc1cc2c3c(cccc3c1)C(=O)N(c1ccc(OCCN3CCCC3)cc1)C2=O the TGI was 28.6 µM.
Molecule Cc1cc2ccc(N)nc2[nH]c1=O has a TGI greater than 100 µM.
Work on O=C(N/N=C\c1ccc([N+](=O)[O-])s1)c1ccncc1 yielded a TGI greater than 38.5 µM.
C=C1C(=O)OC2C3OC(C)(CCC(O)C3COC(C)=O)CC(OC(=O)/C(=C/C)COC(C)=O)C12 (stereo unspecified) showed a TGI of 0.807 µM.
For COc1ccccc1NC(=S)N/N=C/c1cccc(C)n1, the TGI was greater than 39.1 µM.
In the case of CCOC(=O)/C=C/[C@@H](CC)O[Si](C(C)C)(C(C)C)C(C)C, the TGI is reported as greater than 100 µM.

Each molecule was assayed on NCI-H226 lung (assay: inhibition of tumour cell growth, NCI panel, 48 h).
With Nc1cc2c3c(cccc3c1)C(=O)N(c1ccc(OCCN3CCCC3)cc1)C2=O the TGI was 33.2 µM.
Cc1cc2ccc(N)nc2[nH]c1=O gave a TGI greater than 100 µM.
O=C(N/N=C\c1ccc([N+](=O)[O-])s1)c1ccncc1 was tested, and the TGI was 17.7 µM.
Work on C=C1C(=O)OC2C3OC(C)(CCC(O)C3COC(C)=O)CC(OC(=O)/C(=C/C)COC(C)=O)C12 (stereo unspecified) yielded a TGI of 8.4 µM.
COc1ccccc1NC(=S)N/N=C/c1cccc(C)n1 showed a TGI of 37.3 µM.
CCOC(=O)/C=C/[C@@H](CC)O[Si](C(C)C)(C(C)C)C(C)C showed a TGI greater than 100 µM.

Each molecule was assayed on UACC-257 melanoma (assay: inhibition of tumour cell growth, NCI panel, 48 h).
In the case of Nc1cc2c3c(cccc3c1)C(=O)N(c1ccc(OCCN3CCCC3)cc1)C2=O, the TGI is reported as 31.5 µM.
Cc1cc2ccc(N)nc2[nH]c1=O was tested, and the TGI was greater than 100 µM.
O=C(N/N=C\c1ccc([N+](=O)[O-])s1)c1ccncc1 was tested, and the TGI was 31.8 µM.
For C=C1C(=O)OC2C3OC(C)(CCC(O)C3COC(C)=O)CC(OC(=O)/C(=C/C)COC(C)=O)C12 (stereo unspecified), the TGI was 1.96 µM.
Molecule COc1ccccc1NC(=S)N/N=C/c1cccc(C)n1 has a TGI greater than 100 µM.
For CCOC(=O)/C=C/[C@@H](CC)O[Si](C(C)C)(C(C)C)C(C)C, the TGI was greater than 100 µM.
For Cc1c(O)c(=O)ccn1CCc1ccc(O)cc1, the TGI was 54.8 µM.

What follows are molecules tested on RXF 393 renal (assay: inhibition of tumour cell growth, NCI panel, 48 h).
In the case of Nc1cc2c3c(cccc3c1)C(=O)N(c1ccc(OCCN3CCCC3)cc1)C2=O, the TGI is reported as 32.2 µM.
With Cc1cc2ccc(N)nc2[nH]c1=O the TGI was greater than 100 µM.
Work on O=C(N/N=C\c1ccc([N+](=O)[O-])s1)c1ccncc1 yielded a TGI of 56.6 µM.
For C=C1C(=O)OC2C3OC(C)(CCC(O)C3COC(C)=O)CC(OC(=O)/C(=C/C)COC(C)=O)C12 (stereo unspecified), the TGI was 0.515 µM.

Each molecule was assayed on PC-3 prostate (assay: inhibition of tumour cell growth, NCI panel, 48 h).
Work on Nc1cc2c3c(cccc3c1)C(=O)N(c1ccc(OCCN3CCCC3)cc1)C2=O yielded a TGI of 46.5 µM.
Cc1cc2ccc(N)nc2[nH]c1=O was tested, and the TGI was greater than 100 µM.
Work on O=C(N/N=C\c1ccc([N+](=O)[O-])s1)c1ccncc1 yielded a TGI greater than 76.8 µM.
For C=C1C(=O)OC2C3OC(C)(CCC(O)C3COC(C)=O)CC(OC(=O)/C(=C/C)COC(C)=O)C12 (stereo unspecified), the TGI was 4.49 µM.
For COc1ccccc1NC(=S)N/N=C/c1cccc(C)n1, the TGI was greater than 100 µM.
Molecule CCOC(=O)/C=C/[C@@H](CC)O[Si](C(C)C)(C(C)C)C(C)C has a TGI greater than 100 µM.
Molecule Cc1c(O)c(=O)ccn1CCc1ccc(O)cc1 has a TGI greater than 100 µM.

What follows are molecules tested on COLO 205 colon (assay: inhibition of tumour cell growth, NCI panel, 48 h).
In the case of Nc1cc2c3c(cccc3c1)C(=O)N(c1ccc(OCCN3CCCC3)cc1)C2=O, the TGI is reported as 35.2 µM.
Cc1cc2ccc(N)nc2[nH]c1=O was tested, and the TGI was greater than 100 µM.
With O=C(N/N=C\c1ccc([N+](=O)[O-])s1)c1ccncc1 the TGI was 9.22 µM.
C=C1C(=O)OC2C3OC(C)(CCC(O)C3COC(C)=O)CC(OC(=O)/C(=C/C)COC(C)=O)C12 (stereo unspecified) gave a TGI of 0.246 µM.
With COc1ccccc1NC(=S)N/N=C/c1cccc(C)n1 the TGI was greater than 100 µM.
Work on CCOC(=O)/C=C/[C@@H](CC)O[Si](C(C)C)(C(C)C)C(C)C yielded a TGI greater than 100 µM.
Cc1c(O)c(=O)ccn1CCc1ccc(O)cc1 was tested, and the TGI was greater than 100 µM.

The molecules below were run on NCI-H460 lung (assay: inhibition of tumour cell growth, NCI panel, 48 h).
With Nc1cc2c3c(cccc3c1)C(=O)N(c1ccc(OCCN3CCCC3)cc1)C2=O the TGI was 23.7 µM.
Cc1cc2ccc(N)nc2[nH]c1=O showed a TGI greater than 100 µM.
With O=C(N/N=C\c1ccc([N+](=O)[O-])s1)c1ccncc1 the TGI was 33.1 µM.
C=C1C(=O)OC2C3OC(C)(CCC(O)C3COC(C)=O)CC(OC(=O)/C(=C/C)COC(C)=O)C12 (stereo unspecified) showed a TGI of 2.22 µM.
With COc1ccccc1NC(=S)N/N=C/c1cccc(C)n1 the TGI was greater than 85.5 µM.
Work on CCOC(=O)/C=C/[C@@H](CC)O[Si](C(C)C)(C(C)C)C(C)C yielded a TGI greater than 100 µM.
Cc1c(O)c(=O)ccn1CCc1ccc(O)cc1 showed a TGI of 52.9 µM.

Each molecule was assayed on SN12C renal (assay: inhibition of tumour cell growth, NCI panel, 48 h).
Molecule Nc1cc2c3c(cccc3c1)C(=O)N(c1ccc(OCCN3CCCC3)cc1)C2=O has a TGI greater than 66.7 µM.
Cc1cc2ccc(N)nc2[nH]c1=O was tested, and the TGI was greater than 100 µM.
O=C(N/N=C\c1ccc([N+](=O)[O-])s1)c1ccncc1 was tested, and the TGI was 26.8 µM.
Work on C=C1C(=O)OC2C3OC(C)(CCC(O)C3COC(C)=O)CC(OC(=O)/C(=C/C)COC(C)=O)C12 (stereo unspecified) yielded a TGI of 1.98 µM.
Molecule COc1ccccc1NC(=S)N/N=C/c1cccc(C)n1 has a TGI greater than 93.8 µM.

Each molecule was assayed on HL-60(TB) leukemia (assay: inhibition of tumour cell growth, NCI panel, 48 h).
Cc1cc2ccc(N)nc2[nH]c1=O was tested, and the TGI was greater than 100 µM.
In the case of O=C(N/N=C\c1ccc([N+](=O)[O-])s1)c1ccncc1, the TGI is reported as greater than 22.7 µM.
Work on COc1ccccc1NC(=S)N/N=C/c1cccc(C)n1 yielded a TGI greater than 29.8 µM.
Cc1c(O)c(=O)ccn1CCc1ccc(O)cc1 was tested, and the TGI was 81.3 µM.

The molecules below were run on EKVX NSCLC (assay: inhibition of tumour cell growth, NCI panel, 48 h).
Molecule Nc1cc2c3c(cccc3c1)C(=O)N(c1ccc(OCCN3CCCC3)cc1)C2=O has a TGI of 46.1 µM.
